Laboratory results taken from ChEMBL document CHEMBL5209578, “Flow cytometry transport assay for SLC2A2 using HEK293 JumpIN TRex SLC2A2 WT-OE cells” (2022).
pEC50, pIC50: −log10 of the molar value.

Biological target: T1, Solute carrier family 2, facilitated glucose transporter member 2 (Homo sapiens, UniProt P11168)
T1 sequence (P11168 whole entry): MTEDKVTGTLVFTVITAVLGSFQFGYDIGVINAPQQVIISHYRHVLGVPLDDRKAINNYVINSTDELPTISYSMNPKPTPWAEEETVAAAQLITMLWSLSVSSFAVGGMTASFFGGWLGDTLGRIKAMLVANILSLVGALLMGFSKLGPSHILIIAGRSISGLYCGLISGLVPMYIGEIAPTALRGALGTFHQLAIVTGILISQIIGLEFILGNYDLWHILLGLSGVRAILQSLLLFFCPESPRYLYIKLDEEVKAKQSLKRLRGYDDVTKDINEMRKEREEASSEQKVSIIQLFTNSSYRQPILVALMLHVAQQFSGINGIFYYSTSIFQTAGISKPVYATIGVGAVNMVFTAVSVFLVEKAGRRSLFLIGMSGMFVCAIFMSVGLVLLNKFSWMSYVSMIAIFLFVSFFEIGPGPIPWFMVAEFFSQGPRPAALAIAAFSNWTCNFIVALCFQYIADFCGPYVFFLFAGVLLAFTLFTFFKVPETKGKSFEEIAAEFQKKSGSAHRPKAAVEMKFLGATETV
Assay: Inhibition of the Glucose Transporter (GLUT2, SLC2A2) as assessed by a FRET based flow cytometry assay using a genetically-encoded biosensor for measuring free glucose (FLII12Pglu-700uDelta6) in HEK293 JumpIN TRex SLC2A2 WT-OE cells (PubChem AID: 1794829)
Assay type: functional, cell-based

| Structure (SMILES) | pIC50 | pEC50 |
| --- | --- | --- |
| O=C(Oc1cccc(F)c1OC(=O)c1cccc(O)c1)c1cccc(O)c1 | < 5.00 | – |
| C=C1[C@@H](C)[C@H]2[C@H](Cc3ccccc3)NC(=O)[C@]23OC(=O)/C=C/[C@H](O)CCC[C@@H](C)C/C=C/[C@H]3[C@@H]1O [CYTOCHALASIN B] | < 5.00 | – |
| OC[C@H]1OC(O)[C@H](O)[C@@H](O)[C@@H]1O (stereo partly drawn) [DEXTROSE] | – | 3.28 |
